# Assay results: paper PMC12446476 (Nature Communications, 2025)
# Tested on: N. gonorrhoeae
# Assay: In vitro time-kill assay
# Type: cell-based, Neisseria gonorrhoeae
# From the text: The 2024 WHO N. gonorrhoeae reference strains were used for quality control. Only whole MIC doubling dilutions are reported. Clinical breakpoints or the epidemiological cutoff (ECOFF, to indicate azithromycin resistance) from EUCAST (v14.0, https://www.eucast.org/clinical_breakpoints) were used to classify isolates as antimicrobial susceptible or resistant. […] Two times the standard inoculum defined by CLSI was used to establish consistent growth in untreated control samples for some strains. In vitro time-kill assays were performed according to CLSI guidelines[65] using Columbia Broth (BD Difco) supplemented with 1% IsoVitaleX Enrichment (BD). Viable bacterial counts were generated by plating 10-fold serially diluted samples on GC agar plates containing 1% IsoVitaleX Enrichment (BD).
structure (smiles),measurement,setting,value
Cc1c(CN(C)C(=O)/C=C/c2cnc3c(c2)N[C@H](C)[C@H](O)C(=O)N3)oc2ccccc12 [Debio 1453],Log10CFU/ml (time kill),"AR Bank0179, 2X MIC, 0 hr",5.66 Log10CFU/ml
same,Log10CFU/ml (time kill),"AR Bank0179, 2X MIC, 1 hr",5.63 Log10CFU/ml
same,Log10CFU/ml (time kill),"AR Bank0179, 2X MIC, 3 hr",5.09 Log10CFU/ml
same,Log10CFU/ml (time kill),"AR Bank0179, 2X MIC, 6 hr",4.63 Log10CFU/ml
same,Log10CFU/ml (time kill),"AR Bank0179, 2X MIC, 10 hr",2.00 Log10CFU/ml
same,Log10CFU/ml (time kill),"AR Bank0179, 2X MIC, 24 hr",1.95 Log10CFU/ml
same,Log10CFU/ml (time kill),"AR Bank0179, 4X MIC, 0 hr",5.46 Log10CFU/ml
same,Log10CFU/ml (time kill),"AR Bank0179, 4X MIC, 1 hr",5.53 Log10CFU/ml
same,Log10CFU/ml (time kill),"AR Bank0179, 4X MIC, 3 hr",4.84 Log10CFU/ml
same,Log10CFU/ml (time kill),"AR Bank0179, 4X MIC, 6 hr",3.98 Log10CFU/ml
same,Log10CFU/ml (time kill),"AR Bank0179, 4X MIC, 10 hr",1.95 Log10CFU/ml
same,Log10CFU/ml (time kill),"AR Bank0179, 4X MIC, 24 hr",1.95 Log10CFU/ml
same,Log10CFU/ml (time kill),"AR Bank0179, 8X MIC, 0 hr",5.74 Log10CFU/ml
same,Log10CFU/ml (time kill),"AR Bank0179, 8X MIC, 1 hr",5.30 Log10CFU/ml
same,Log10CFU/ml (time kill),"AR Bank0179, 8X MIC, 3 hr",4.73 Log10CFU/ml
same,Log10CFU/ml (time kill),"AR Bank0179, 8X MIC, 6 hr",3.88 Log10CFU/ml
same,Log10CFU/ml (time kill),"AR Bank0179, 8X MIC, 10 hr",1.95 Log10CFU/ml
same,Log10CFU/ml (time kill),"AR Bank0179, 8X MIC, 24 hr",1.95 Log10CFU/ml
same,Log10CFU/ml (time kill),"AR Bank0179, 16X MIC, 0 hr",5.69 Log10CFU/ml
same,Log10CFU/ml (time kill),"AR Bank0179, 16X MIC, 1 hr",5.23 Log10CFU/ml
same,Log10CFU/ml (time kill),"AR Bank0179, 16X MIC, 3 hr",4.75 Log10CFU/ml
same,Log10CFU/ml (time kill),"AR Bank0179, 16X MIC, 6 hr",3.67 Log10CFU/ml
same,Log10CFU/ml (time kill),"AR Bank0179, 16X MIC, 10 hr",1.95 Log10CFU/ml
same,Log10CFU/ml (time kill),"AR Bank0179, 16X MIC, 24 hr",1.95 Log10CFU/ml
same,Log10CFU/ml (time kill),"ATCC 49226, 2X MIC, 0 hr",6.10 Log10CFU/ml
same,Log10CFU/ml (time kill),"ATCC 49226, 2X MIC, 1 hr",5.92 Log10CFU/ml
same,Log10CFU/ml (time kill),"ATCC 49226, 2X MIC, 3 hr",5.64 Log10CFU/ml
same,Log10CFU/ml (time kill),"ATCC 49226, 2X MIC, 6 hr",4.51 Log10CFU/ml
same,Log10CFU/ml (time kill),"ATCC 49226, 2X MIC, 10 hr",2.60 Log10CFU/ml
same,Log10CFU/ml (time kill),"ATCC 49226, 2X MIC, 24 hr",1.95 Log10CFU/ml
same,Log10CFU/ml (time kill),"ATCC 49226, 4X MIC, 0 hr",6.07 Log10CFU/ml
same,Log10CFU/ml (time kill),"WHO V, 2X MIC, 0 hr",5.66 Log10CFU/ml
same,Log10CFU/ml (time kill),"WHO V, 2X MIC, 1 hr",5.58 Log10CFU/ml
same,Log10CFU/ml (time kill),"WHO V, 2X MIC, 3 hr",4.90 Log10CFU/ml
same,Log10CFU/ml (time kill),"WHO V, 2X MIC, 6 hr",4.14 Log10CFU/ml
same,Log10CFU/ml (time kill),"WHO V, 2X MIC, 10 hr",3.53 Log10CFU/ml
same,Log10CFU/ml (time kill),"WHO V, 2X MIC, 24 hr",1.95 Log10CFU/ml
same,Log10CFU/ml (time kill),"WHO V, 4X MIC, 0 hr",5.59 Log10CFU/ml
same,Log10CFU/ml (time kill),"WHO V, 4X MIC, 1 hr",5.34 Log10CFU/ml
same,Log10CFU/ml (time kill),"WHO V, 4X MIC, 3 hr",4.37 Log10CFU/ml
same,Log10CFU/ml (time kill),"WHO V, 4X MIC, 6 hr",4.03 Log10CFU/ml
same,Log10CFU/ml (time kill),"WHO V, 4X MIC, 10 hr",2.00 Log10CFU/ml
same,Log10CFU/ml (time kill),"WHO V, 4X MIC, 24 hr",1.95 Log10CFU/ml
same,Log10CFU/ml (time kill),"WHO V, 8X MIC, 0 hr",5.60 Log10CFU/ml
same,Log10CFU/ml (time kill),"WHO V, 8X MIC, 1 hr",4.90 Log10CFU/ml
same,Log10CFU/ml (time kill),"WHO V, 8X MIC, 3 hr",4.34 Log10CFU/ml
same,Log10CFU/ml (time kill),"WHO V, 8X MIC, 6 hr",4.03 Log10CFU/ml
same,Log10CFU/ml (time kill),"WHO V, 8X MIC, 10 hr",1.95 Log10CFU/ml
same,Log10CFU/ml (time kill),"WHO V, 8X MIC, 24 hr",1.95 Log10CFU/ml
same,Log10CFU/ml (time kill),"WHO V, 16X MIC, 0 hr",5.81 Log10CFU/ml
same,Log10CFU/ml (time kill),"WHO V, 16X MIC, 1 hr",5.00 Log10CFU/ml
same,Log10CFU/ml (time kill),"WHO V, 16X MIC, 3 hr",4.27 Log10CFU/ml
same,reduction in viable CFU counts,"within 24 h, all concentrations tested, as low as 2× MIC, 10 isolates",≥ 3 log10
